Test results: ChEMBL document CHEMBL1144852, “Optimization of a dihydropyrrolopyrazole series of transforming growth factor-beta type I receptor kinase domain inhibitors: discovery of an orally bioavailable transforming growth factor-beta receptor type I inhibitor as antitumor agent” (J Med Chem, 2008)

Legend:
TGF-beta receptor type-1 = TGF-beta receptor type-1 (Homo sapiens, UniProt P36897, T204D); experiment: Inhibition of TGFbeta type receptor 1 ALK5 (T204D) expressed in Sf9 cells
NIH3T3 = experiment: Antiproliferative activity against mouse NIH3T3 cells by [3H]thymidine assay; type: functional, cell-based
[1] = Antiproliferative activity against mink Mv1Lu-p3TP-Lux cells by luciferase reporter assay; type: functional, cell-based, Neovison vison; conditions: Neogale vison
[2] = Metabolic stability in rat microsomes; type: ADME, Microsome; further: time not given here
Caco-2 = experiment: Permeability from apical to basolateral side of human Caco-2 cell membrane; type: ADME, cell-based
Liver microsomes = experiment: Metabolic stability in human liver microsomes; type: ADME, Microsome; further: time not given here
Mus musculus [3] = experiment: Inhibition of TGFbeta type receptor 1 in human Calu6 cells xenografted mouse at 50 mg/kg, po by single point IVTI assay; type: functional, Calu-6; set-up: scale not given: the % may be the effect or the level left
Mus musculus [4] = experiment: Inhibition of TGFbeta type receptor 1 in orally dosed human Calu6 cells xenografted mouse by IVTI […] assay; type: functional, organism-based; conditions: Calu-6

Structure (SMILES) | IC50 (TGF-beta receptor type-1) | IC50 (NIH3T3) | IC50 [1] | Stability [2] | permeability (Caco-2) | Stability (Liver microsomes) | Activity (Mus musculus [3]) | EC50 (Mus musculus [4])
CN(C)C(=O)c1ccc(Oc2ccc3c(-c4c(-c5ccccn5)nn5c4CCC5)ccnc3c2)cc1 | 1100 nM | 5100 nM | 15000 nM | – | – | – | – | –
Cc1cccc(-c2nn3c(c2-c2ccnc4c(F)cccc24)CCC3)n1 | 928 nM | 1030 nM | 951 nM | – | – | – | – | –
COc1cc(-c2c(-c3ccccn3)nn3c2CCC3)c2ccccc2n1 | > 20000 nM | – | – | – | – | – | – | –
c1ccc(-c2nn3c(c2-c2ccnc4cc(OCC5CCCO5)ccc24)CCC3)nc1 (stereo not given) | 130 nM | 250 nM | 80 nM | 97% | 42% | 55% | – | –
Cc1cccc(-c2nn3c(c2-c2ccnc4ccc(OC(F)(F)F)cc24)CCC3)n1 | 141 nM | 254 nM | 201 nM | – | – | – | – | –
NC(=O)c1ccc(Oc2ccc3c(-c4c(-c5ccccn5)nn5c4CCC5)ccnc3c2)cc1 | 1100 nM | – | – | – | – | – | – | –
CN1CCN(CCCOc2ccc3c(-c4c(-c5ccccn5)nn5c4CCC5)ccnc3c2)CC1 | 74 nM | 92 nM | 44 nM | 46% | 13% | 17% | 70% | 1100 nM
